Data reported in US20250282802A1, “P[…] AND METHODS” (priority 2020, published 2025).
Where two headings read alike, the source gives them in different places.

Key:
[1] = tested on: Aspergillus fumigatus 1163; assay: Fungicidal bioassay (MIC), Aspergillus fumigatus; type: cell-based; details: for MIC: Aspergillus fumigatus, 1163, 48 hrs growth, CLSI
Description: Bacteria, plasmids and growth conditions. Bacterial strains, plasmids and primers used in this study are described in Table 3 and 4. General chemical and molecular biology reagents were purchased from Sigma-Aldrich or New England Biolabs. Phosphinothricin (glufosinate) was purchased from GoldBio (CAS #77182-82-2). Standard bacterial growth media were prepared as described (Current Protocols in Molecular Biology 2019, 125:e81, e82, e83). E. coli strains were typically grown at 37° C.; P. ananatis strains were typically grown at 30° C. Phosphonate induction media (PIM) was prepared as follows: 8.37 g/L MOPS, 0.72 g/L Tricine, 0.58 g/L NaCl, 0.51 g/L NH4Cl, 1.6 g/L KOH, 0.1 g/L MgCl2·6H2O, 0.05 g/L K2SO4, 0.2 g/L K2HIPO4 were dissolved H2O and steam sterilized for 20 min at 121° C. After cooling, 1× sterile trace element solution was added (1000× stock: 1.5 g/L nitrilotriacetic acid trisodium salt, 0.8 g/L Fe(NH4)2(SO4)2·7H2O, 0.2 g/L Na2SeO3, 0.1 g/L CoCl2·6H2O, 0.1 g/L MnSO4·H2O, 0.1 g/L Na2MoO4·2H2O, 0.1 g/L Na2WO4·2H2O, 0.1 g/L ZnSO4·7H2O, 0.1 g/L NiCl2·6H2O, 0.01 g/L H3BO3, 0.01 g/L CuSO4·5H2O) followed by addition of 1% (v/v) sterile glycerol and 50 μg/mL sterile kanamycin. For culturing of Candida and Saccharomyces strains, Rosewell Park Memorial Institute 1640 medium (RPMI; Sigma-Aldrich R6504) was used for liquid culturing and Sabouraud Dextrose Agar (SDA; Difco™ 210950) for solid plating unless otherwise specified. For Aspergillus strains, Rosewell Park Memorial Institute 1640 medium (RPMI) was used for liquid culturing and Potato Dextrose Agar (PDA; Difco™ 213400) was used for solid plating unless otherwise specified. YMM medium (6.7 g/L yeast nitrogen base without amino acids [BD Difco™ 291940], 20 g/L glucose, 1× trace element solution) was used as minimal media for fungal strains.
Fungicidal bioassays. […] Minimum Inhibitory Concentration (MIC) was determined visually by finding the concentration of compound at which there was no visual difference between that concentration and the uninoculated media control.

[2] = tested on: Pseudomonas aeruginosa PAO1; assay: Antibacterial bioassay (MIC), Pseudomonas aeruginosa; type: cell-based; details: CLSI
Description: Antibacterial bioassays. Susceptibility testing for the ESKAPE pathogens and Salmonella enterica LT2 was performed using a Kirby-Bauer method as outlined by the Clinical and Laboratory Standards Institute (CLSI). For rich media bioassays, Mueller Hinton Broth 2 (MH-2, Sigma-Aldrich, 90922) was used for all strains except 1% BHI was supplemented for Enterococcus faecalis ATCC 19433. For minimal media bioassays, glucose-MOPS minimal medium was used. Briefly, overnight bacterial cultures were sub-cultured and inoculated into 5 mL top agar (0.7% agar) for final concentration of 5×10^5 CFU/mL. Then, 20 μL of a compound 2-fold dilution series (200, 100, 50, 25, 12.5, 6.25 μM in water) was spotted on 6 mm diameter blank paper discs (BD BBL™ 231039). Control discs received 20 μL of 50 mg/mL kanamycin. Plates were incubated at 35° C. for 20-24 hours. […] Sensitivity of the IPTG-inducible phosphonate uptake strain WM6242 to pantaphos was tested using a disk diffusion assay. Plates containing growth medium were overlayed with 5 mL of top agar (0.7% agar) inoculated with 100 μL (OD600=0.8) of the phosphonate-specific E. coli indicator strain (WM6242) with or without addition of 1 mM IPTG. WM6242 is engineered with an IPTG-inducible, non-specific phosphonate uptake system (phnCDE). […]

## O=C(O)/C=C(\C(=O)O)C(O)P(=O)(O)O (centres unmarked) [pantaphos, 2-(hydroxy(phosphono)methyl)maleate]
[1]; M9 minimal medium, read-out: MIC, Minimal medium
  MIC: > 125 µM
[1]; RPMI 1640 medium, read-out: MIC, Rich medium
  MIC: > 125 µM
[1]; rich or minimal media
  effect on the growth of fungi, in words: no effect on the growth
[2]; Mueller-Hinton 2 medium, read-out: MIC, Rich medium
  MIC: > 200 µM
[2]; glucose-MOPS minimal medium, read-out: MIC, Minimal medium
  MIC: > 200 µM
